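Cultured in 96-well plates, cells were exposed to test compound for 48 hours across five concentrations. Definition used: TGI = concentration required for complete inhibition of growth.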

For one test, the system named is UACC-257 melanoma. Description: DTP human tumour cell line panel, 48 h.
`O=C1CSC2(CC(/C=C/c3ccccc3O)=NN2c2cccc(S(=O)(=O)O)c2)N1c1nc2ccccc2s1` (configuration not stated) returned a TGI of over 100 µM.
Consider `O=c1n(/N=C/c2ccccc2)c(=O)n2n1C1C=CC2CC1`, for which the TGI is over 100 µM.
For `COc1cc(Br)c(OC)c2c(OC)cc(C)cc12`, the TGI was over 100 µM.
On the same count and under the same terms, the figure for `CCOC(=O)/C(N=Nc1ccc(-n2c(C)nc3ccccc3c2=O)cc1)=C(/C)O` is over 100 µM; for `COc1cc(OCc2ccc3nc(-c4ccccc4)c(N)nc3c2)cc(OC)c1OC` it is 49.7 µM; for `CCc1nnc(CC)n1NCCCC(=O)O` it is over 100 µM.
On the same count and under the same terms, the result for `CCOC(=O)C(c1c[nH]c2ccccc12)(c1c[nH]c2ccccc12)c1c[nH]c2ccccc12` reads over 100 µM; that for `O=C1NC(N2CCOCC2)=N/C1=C\c1cccs1`, over 100 µM.
Still for that read-out and setting: the figure for `O=c1[nH]c(=O)n(C2OC(CO)C(O)C(F)C2O)cc1F` (configuration not stated) is over 100 µM.

In another test the test system is HOP-62 NSCLC. Description: DTP human tumour cell line panel, 48 h.
For `CC(C)OP(=O)(OC(C)C)C(C(C)C)N(C)/C(N)=N\C1=NC(C(F)(F)F)(C(F)(F)F)N=C(C(C(F)(F)F)C(F)(F)F)O1` (configuration not stated), the TGI is 18 µM.
Same read-out and setting: the figure for `O=C(c1ccc(Cl)cc1Cl)N(C(=O)N1CCC(c2ccccc2)CC1)c1ccccc1` is over 100 µM; for `NCCCCNCCCN1CC1` it is 5.83 µM; for `O=c1n(/N=C/c2ccccc2)c(=O)n2n1C1C=CC2CC1` it is over 100 µM.
On the same count and under the same terms, the figure for `COc1cc(Br)c(OC)c2c(OC)cc(C)cc12` is over 100 µM; for `CCOC(=O)/C(N=Nc1ccc(-n2c(C)nc3ccccc3c2=O)cc1)=C(/C)O` it is over 100 µM; for `CCc1nnc(CC)n1NCCCC(=O)O` it is over 100 µM.
On the same count and under the same terms, the figure for `CCOC(=O)C(c1c[nH]c2ccccc12)(c1c[nH]c2ccccc12)c1c[nH]c2ccccc12` is over 100 µM; for `O=C1NC(N2CCOCC2)=N/C1=C\c1cccs1` it is over 100 µM.

In another test the test system is CCRF-CEM leukemia. Description: DTP human tumour cell line panel, 48 h.
The compound `CC(C)OP(=O)(OC(C)C)C(C(C)C)N(C)/C(N)=N\C1=NC(C(F)(F)F)(C(F)(F)F)N=C(C(C(F)(F)F)C(F)(F)F)O1` (configuration not stated) had a TGI of 4.88 µM.
The same measure, in the same setting: the result for `O=C(c1ccc(Cl)cc1Cl)N(C(=O)N1CCC(c2ccccc2)CC1)c1ccccc1` reads over 100 µM; that for `O=C1CSC2(CC(/C=C/c3ccccc3O)=NN2c2cccc(S(=O)(=O)O)c2)N1c1nc2ccccc2s1` (configuration not stated), 51.7 µM.
Still for that read-out and setting: the result for `O=c1n(/N=C/c2ccccc2)c(=O)n2n1C1C=CC2CC1` reads over 100 µM.
The compound `COc1cc(Br)c(OC)c2c(OC)cc(C)cc12` registered a TGI of over 100 µM.
The compound `CCOC(=O)/C(N=Nc1ccc(-n2c(C)nc3ccccc3c2=O)cc1)=C(/C)O` had a TGI of over 100 µM.
Still for that read-out and setting: the figure for `COc1cc(OCc2ccc3nc(-c4ccccc4)c(N)nc3c2)cc(OC)c1OC` is 61.9 µM; for `CCc1nnc(CC)n1NCCCC(=O)O` it is over 100 µM.
Same read-out and setting: the result for `CCOC(=O)C(c1c[nH]c2ccccc12)(c1c[nH]c2ccccc12)c1c[nH]c2ccccc12` reads 58.9 µM; that for `O=C1NC(N2CCOCC2)=N/C1=C\c1cccs1`, over 100 µM.
`O=c1[nH]c(=O)n(C2OC(CO)C(O)C(F)C2O)cc1F` (configuration not stated) yielded a TGI of over 100 µM.

Another test relates to NCI-H23 lung. Description: DTP human tumour cell line panel, 48 h.
The compound `CC(C)OP(=O)(OC(C)C)C(C(C)C)N(C)/C(N)=N\C1=NC(C(F)(F)F)(C(F)(F)F)N=C(C(C(F)(F)F)C(F)(F)F)O1` (configuration not stated) showed a TGI of 14.6 µM.
Still for that read-out and setting: the result for `O=C(c1ccc(Cl)cc1Cl)N(C(=O)N1CCC(c2ccccc2)CC1)c1ccccc1` reads over 100 µM.
On the same count and under the same terms, the result for `NCCCCNCCCN1CC1` reads 16.2 µM; that for `O=C1CSC2(CC(/C=C/c3ccccc3O)=NN2c2cccc(S(=O)(=O)O)c2)N1c1nc2ccccc2s1` (configuration not stated), over 100 µM; that for `O=c1n(/N=C/c2ccccc2)c(=O)n2n1C1C=CC2CC1`, over 100 µM.
With `COc1cc(Br)c(OC)c2c(OC)cc(C)cc12`, the TGI is over 100 µM.
On the same count and under the same terms, the result for `CCOC(=O)/C(N=Nc1ccc(-n2c(C)nc3ccccc3c2=O)cc1)=C(/C)O` reads over 100 µM; that for `CCc1nnc(CC)n1NCCCC(=O)O`, over 100 µM.
Same read-out and setting: the result for `CCOC(=O)C(c1c[nH]c2ccccc12)(c1c[nH]c2ccccc12)c1c[nH]c2ccccc12` reads over 100 µM; that for `O=C1NC(N2CCOCC2)=N/C1=C\c1cccs1`, over 100 µM.
The same measure, in the same setting: the result for `O=c1[nH]c(=O)n(C2OC(CO)C(O)C(F)C2O)cc1F` (configuration not stated) reads over 100 µM.

The next test deals with UACC-62 melanoma. As to the kind of experiment: DTP human tumour cell line panel, 48 h.
Consider `CC(C)OP(=O)(OC(C)C)C(C(C)C)N(C)/C(N)=N\C1=NC(C(F)(F)F)(C(F)(F)F)N=C(C(C(F)(F)F)C(F)(F)F)O1` (configuration not stated), for which the TGI was found to be 4.7 µM. That is a single-digit micromolar value.
Same read-out and setting: the figure for `O=C(c1ccc(Cl)cc1Cl)N(C(=O)N1CCC(c2ccccc2)CC1)c1ccccc1` is over 100 µM; for `NCCCCNCCCN1CC1` it is 91.1 µM; for `O=C1CSC2(CC(/C=C/c3ccccc3O)=NN2c2cccc(S(=O)(=O)O)c2)N1c1nc2ccccc2s1` (configuration not stated) it is over 100 µM.
Same read-out and setting: the result for `O=c1n(/N=C/c2ccccc2)c(=O)n2n1C1C=CC2CC1` reads over 100 µM; that for `COc1cc(Br)c(OC)c2c(OC)cc(C)cc12`, over 100 µM; that for `CCOC(=O)/C(N=Nc1ccc(-n2c(C)nc3ccccc3c2=O)cc1)=C(/C)O`, over 100 µM.
Still for that read-out and setting: the figure for `COc1cc(OCc2ccc3nc(-c4ccccc4)c(N)nc3c2)cc(OC)c1OC` is 28.2 µM.
For the compound `CCc1nnc(CC)n1NCCCC(=O)O`, the TGI was over 100 µM.
Same read-out and setting: the result for `CCOC(=O)C(c1c[nH]c2ccccc12)(c1c[nH]c2ccccc12)c1c[nH]c2ccccc12` reads over 100 µM.
Same read-out and setting: the result for `O=C1NC(N2CCOCC2)=N/C1=C\c1cccs1` reads over 100 µM.
Still for that read-out and setting: the figure for `O=c1[nH]c(=O)n(C2OC(CO)C(O)C(F)C2O)cc1F` (configuration not stated) is over 100 µM.

Source of the values: PubChem BioAssay (NCI).
